Test results reported in US20240425865A1, “METHODS FOR TREATING CELLULAR INFLAMMATION INDUCED BY AFB1” (priority 2023, published 2024).

Columns and labels:
RelA / TRIM7 = RelA / TRIM7 (Mus musculus, UniProt Q04207); assay type: cell-based
miR-9 [1] = conditions: mouse, in vivo, 0.75 mg/kg
miR-9 [2] = test: qRT-PCR of miR-9 in MPC-5 treated with AFB1; assay type: cell-based
Protocol: • (1) glomeruli (n=6) were treated with AFB1 of 0.75 mg/kg at 0, 2, and 4 weeks; • (2) MPC-5 (n=6) was treated with AFB1 of 5, 10, and 20μ M; • (3) Relative expression levels of miR-9 in the glomeruli treated with (1) and in the MPC-5 treated with (2) were detected by adopting a qRT-PCR manner, respectively. u6 RNA was used as an internal reference for miRNA, a sequence of a forward primer of U6 gene was shown in SEQ ID NO.1 in Table 1, and a sequence of a reverse primer of U6 gene was shown in SEQ ID NO.2. A sequence of a forward primer of miR-9 was shown in SEQ ID NO.3, a sequence of a reverse primer of miR-9 was shown in SEQ ID NO.4, and a sequence of a primer of a stem-loop sequence that is used to increase a length of a miR-9 reverse transcription product was shown in SEQ ID No.45.

RelA / miR-9 promoter = assay type: cell-based
RelA [3] = target: RelA (Mus musculus, UniProt Q04207); test: IP-MS of proteins interacting with RelA in MPC-5 cells; assay type: cell-based
RelA (Mus musculus, UniProt Q04207), sequence (Q04207 whole entry, looked up): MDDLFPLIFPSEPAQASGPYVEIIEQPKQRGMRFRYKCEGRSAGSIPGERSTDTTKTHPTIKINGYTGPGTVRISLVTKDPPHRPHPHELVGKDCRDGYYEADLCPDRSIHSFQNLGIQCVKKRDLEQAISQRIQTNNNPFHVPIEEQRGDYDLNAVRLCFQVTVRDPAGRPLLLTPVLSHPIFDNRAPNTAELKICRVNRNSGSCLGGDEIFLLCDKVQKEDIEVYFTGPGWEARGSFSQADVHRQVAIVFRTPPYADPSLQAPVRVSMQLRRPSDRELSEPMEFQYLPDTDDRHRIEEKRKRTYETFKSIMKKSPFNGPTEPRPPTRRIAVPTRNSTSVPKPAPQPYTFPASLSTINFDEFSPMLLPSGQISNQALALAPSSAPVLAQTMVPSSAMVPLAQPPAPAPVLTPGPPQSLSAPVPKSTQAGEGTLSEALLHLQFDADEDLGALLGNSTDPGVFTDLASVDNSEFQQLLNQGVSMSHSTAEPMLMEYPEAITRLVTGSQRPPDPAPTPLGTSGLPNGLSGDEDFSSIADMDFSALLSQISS
Protocol: For the analysis of RelA-binding proteins, IP-MS was used to detect proteins interacting with RelA. After incubating THE MPC-5 cells with RelA antibody overnight at 4° C., MPC-5 lysates were mixed with Protein A/G agarose beads (Amersham Biosciences) and then sodium dodecyl sulfate-polyacrylamide gel electrophoresis (SDS-PAGE) analysis and Caumas blue staining were performed for isolation of target proteins. Then, protein samples were sent to Suzhou Mass-elife Biotechnology Co. Ltd (Suzhou, China) for further analysis. For liquid chromatography-mass spectrometry (LC-MS) analysis, proteins were re-solubilized in a mixture of acetonitrile and water, and sample data was analyzed using an ultra-high-performance liquid chromatography (UHPLC) system coupled to a high-resolution mass spectrometer in Mass-elife Biotech Co. Ltd. of Suzhou (Suzhou, China). Identified proteins were analyzed for abundance using Byonic 2.13.17 (Protein Metrics, California, USA) to retrieve MS raw files on the uniport human protein database.

RelA [4] = test: Western blot of RelA in MPC-5 cells treated with AFB1; assay type: cell-based
Protocol: To investigate whether RelA is involved in the reduction of the expression level of miR-9 in glomerular podocytes by AFB1, relative protein expression levels of RelA in glomeruli at 0, 2, and 4 weeks treated with AFB1 of 0.75 mg/kg, and MPC-5 cells treated with AFB1 of 5, 10, 20 uM were detected, respectively, by adopting a Western blot manner.

RelA [5] = conditions: mouse, in vivo, 0.75 mg/kg
3′-UTR of CXCR4 gene = test: luciferase reporter (pMIR) with CXCR4 3′-UTR, co-transfection in MPC-5 cells; assay type: cell-based; conditions: FIG. 1C
Source text: To validate the binding of miR-9 to the CXCR4 gene, 3′-UTR targeting sequences of a wild-type CXCR4 gene and a mutant-type CXCR4 gene (target site ACCAAAG was mutated to ACGGCGC) were constructed into a luciferase reporter vector pMIR to obtain recombinant luciferase reporter vectors of the wild-type and the mutant-type. Subsequently, miR-9 and negative control miRNAs (a sequence of a primer as shown in SEQ ID NO.7 and SEQ ID NO.8) were co-transfected with the recombinant luciferase reporter vector of the wild-type or the mutant type into MPC-5 cells, and results were as shown in FIG. 1C. […] The control miRNAs were unable to targetedly bind to either the 3′-UTR of the wild-type CXCR4 or the 3′-UTR of the mutant-type CXCR4, and the fluorescence values were […].

glomeruli = test: rAAV9-CAG-GFP-miR-9 transfection of AFB1-treated mouse, glomeruli readouts; assay type: in vivo; conditions: miR-9 increased via rAAV9-CAG-GFP-miR-9
Protocol: Relevant agents include fluorescently labeled Gr-1 antibody (CST), fluorescently labeled IFN-γ antibody (CST) or CD86 antibody (fluorescent secondary antibody: goat anti-rabbit IgG) (Abcam) and CD68 antibody (fluorescently secondary antibody: goat anti-rabbit IgG) (Abcam), and the rest of the same agents as above.
To understand the ability of miR-9 in down-regulating the CXCR4/TXNIP/NLRP3 inflammatory vesicle pathway during podocytes inflammation induced by AFB1, a 4-week-old mouse was treated with AFB1 of 0.75 mg/kg, and rAAV9-CAG-GFP-miR-9 or CAG-GFP luciferase control vector was transfected into the treated mouse, and an expression level of miR-9 in glomeruli after transfection was detected by qRT-PCR.

RelA / TRIM7, sequence (Q04207 whole entry, looked up): as above

Substance | binding of RelA and TRIM7 (RelA / TRIM7) | expression level of RelA protein (RelA / TRIM7) | ubiquitination of RelA (RelA / TRIM7) | expression level of miR-9 in glomeruli (miR-9 [1]) | expression level of miR-9 in cells (MPC-5) (miR-9 [2]) | RelA binding in the miR-9 promoter region (RelA / miR-9 promoter) | TRIM7 among RelA-interacting proteins (RelA [3]) | p-RelA/RelA in MPC-5 cells (RelA [4]) | p-RelA/RelA in glomeruli (RelA [5]) | luciferase fluorescence values, wild-type CXCR4 3′-UTR reporter (3′-UTR of CXCR4 gene; co-transfected into MPC-5 cells) | luciferase fluorescence values, mutant-type CXCR4 3′-UTR reporter (3′-UTR of CXCR4 gene; target site ACCAAAG mutated to ACGGCGC, MPC-5 cells) | secretion of IL-1β in glomeruli (glomeruli; AFB1-treated mouse, ELISA) | secretion of IL-6 in glomeruli (glomeruli; AFB1-treated mouse, ELISA) | secretion of TNF-α in glomeruli (glomeruli; AFB1-treated mouse, ELISA) | inflammatory cell infiltration in glomeruli (glomeruli; AFB1 for 4 weeks, HE staining and flow cytometry)
Aflatoxin B1 [AFB1] | promoted the binding | down-regulated | increased the ubiquitination | significantly reduced | significantly reduced | reduced RelA binding | significantly enriched | significant reduction | significant reduction |  |  |  |  |  | 
miR-9: mmu-miR-9-5p MIMAT0000142; nucleotide sequence shown in SEQ ID No. 5 (UCUUUGGUUAUCUAGCUGUAUGA; chemistry not given here) |  |  |  |  |  |  |  |  |  | relative decrease | unchanged | decreased secretion | decreased secretion | decreased secretion | attenuated inflammatory cell infiltration
